The values that follow are results of earlier work, collected in patent US20110207832A1, “SKIN DISINFECTANT COMPOSITION AND METHODS FOR MANUFACTURING AND USING” (Skinvisible Pharmaceuticals, Inc., priority 2010, published 2011).

For series [1] the following is noted: in vivo.

On to `[H]/N=C(\N/C(=N/[H])NCCCCCCNC(=N)NC(=N)Nc1ccc(Cl)cc1)Nc1ccc(Cl)cc1` [chlorhexidine, 1,6-di(4-chlorophenyl-diguanido) hexane], for which the “water solubility (in words)” value is “practically insoluble in water”.

Turning to “Poly(vinylpyrrolidone/1-eicosene) [PVPE]”, in series [1], the dermal toxicity entry is “no demonstrable dermal toxicity”.

Regarding “Poly(vinylpyrrolidone/1-hexadecene) [PVPH]”, the dermal toxicity result in series [1] is given as “no demonstrable dermal toxicity”.
